From US9403755B2, “Isometheptene isomer” (TONIX PHARMACEUTICALS INC., priority 2013, dated 2016)

Assays:
[1] = cited from earlier work; for plasma half-life: human volunteers, enantiomers
[2] = molecular target: T1, 5-HT 1A (Homo sapiens, UniProt P08908); assay: receptor binding screen, 5-HT 1A
T1 sequence (P08908 1-422): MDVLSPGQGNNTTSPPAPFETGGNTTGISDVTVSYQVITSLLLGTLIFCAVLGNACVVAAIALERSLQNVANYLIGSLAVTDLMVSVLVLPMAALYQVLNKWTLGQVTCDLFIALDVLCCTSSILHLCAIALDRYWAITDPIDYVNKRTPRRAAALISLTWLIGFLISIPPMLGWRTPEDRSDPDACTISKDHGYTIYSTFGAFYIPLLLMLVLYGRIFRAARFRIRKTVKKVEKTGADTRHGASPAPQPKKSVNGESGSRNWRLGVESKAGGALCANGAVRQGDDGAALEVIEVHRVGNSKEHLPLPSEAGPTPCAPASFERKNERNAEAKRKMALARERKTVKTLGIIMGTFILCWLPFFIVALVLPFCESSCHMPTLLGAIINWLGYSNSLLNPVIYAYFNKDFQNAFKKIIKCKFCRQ

[3] = molecular target: 5-HT7 (Homo sapiens, UniProt P34969); assay: receptor binding screen, 5-HT7; settings: 5-HT7, 10 μM
Sequence of 5-HT7 (P34969 whole entry, species assumed): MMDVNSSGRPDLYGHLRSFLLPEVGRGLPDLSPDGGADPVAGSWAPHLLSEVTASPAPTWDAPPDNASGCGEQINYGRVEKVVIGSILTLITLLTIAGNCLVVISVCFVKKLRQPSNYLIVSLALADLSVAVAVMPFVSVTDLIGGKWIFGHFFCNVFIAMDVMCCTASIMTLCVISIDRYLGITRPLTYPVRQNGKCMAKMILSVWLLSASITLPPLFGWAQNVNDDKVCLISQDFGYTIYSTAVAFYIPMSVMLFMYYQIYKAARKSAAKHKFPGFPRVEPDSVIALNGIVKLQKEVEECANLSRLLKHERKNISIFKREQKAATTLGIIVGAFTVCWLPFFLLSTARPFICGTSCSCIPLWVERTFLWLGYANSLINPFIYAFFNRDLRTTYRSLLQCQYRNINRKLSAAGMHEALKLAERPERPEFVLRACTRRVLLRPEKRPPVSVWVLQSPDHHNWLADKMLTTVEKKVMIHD

[4] = molecular target: T2, α2B-adrenergic receptor (Homo sapiens, UniProt P18089); assay: ligand binding screen and equilibrium binding, α2B-adrenergic receptor; settings: Adrenergic a2B; for inhibition at 10 µM: inhibition of ligand binding; for Ki: equilibrium binding
T2 sequence (P18089 1-450): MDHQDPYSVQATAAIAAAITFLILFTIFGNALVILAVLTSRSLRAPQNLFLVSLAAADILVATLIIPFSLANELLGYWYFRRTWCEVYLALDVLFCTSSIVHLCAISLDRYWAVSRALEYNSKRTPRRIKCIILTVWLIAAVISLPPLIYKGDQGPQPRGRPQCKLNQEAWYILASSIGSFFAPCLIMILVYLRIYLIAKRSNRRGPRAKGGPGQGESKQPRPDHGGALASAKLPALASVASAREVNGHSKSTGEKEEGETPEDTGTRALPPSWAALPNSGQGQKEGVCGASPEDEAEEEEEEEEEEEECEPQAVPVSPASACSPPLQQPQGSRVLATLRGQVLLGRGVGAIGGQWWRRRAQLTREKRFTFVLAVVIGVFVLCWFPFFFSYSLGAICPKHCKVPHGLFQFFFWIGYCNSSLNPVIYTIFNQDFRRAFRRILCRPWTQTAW

[5] = molecular target: T3, Adrenergic a2C (Homo sapiens, UniProt P18825); assay: receptor binding screen, Adrenergic a2C
T3 sequence (P18825 1-462): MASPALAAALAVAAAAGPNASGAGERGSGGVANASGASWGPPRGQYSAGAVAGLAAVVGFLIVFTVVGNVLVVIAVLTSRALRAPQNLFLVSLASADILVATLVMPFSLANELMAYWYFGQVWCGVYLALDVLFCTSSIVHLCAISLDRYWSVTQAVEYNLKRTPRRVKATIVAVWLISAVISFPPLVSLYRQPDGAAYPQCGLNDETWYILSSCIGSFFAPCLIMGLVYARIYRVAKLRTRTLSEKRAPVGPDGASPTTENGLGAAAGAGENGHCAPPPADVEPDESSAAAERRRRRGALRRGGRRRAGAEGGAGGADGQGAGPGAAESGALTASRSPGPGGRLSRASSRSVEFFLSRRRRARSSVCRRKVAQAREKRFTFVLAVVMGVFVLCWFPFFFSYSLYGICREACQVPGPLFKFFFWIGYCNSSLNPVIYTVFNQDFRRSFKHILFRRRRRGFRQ

[6] = hydrochloride or mucate salt form; cited from earlier work
[7] = system: Imidazoline 1 (I1) receptor; assay: Imidazoline I1 receptor radioligand binding assay; parameters: species or system bovine; settings: for Ki: Imidazoline-1 (I1), equilibrium binding
Description: Evaluation of the Affinity of Compounds for the Peripheral Imidazoline Receptor in Bovine Adrenal Medulla Glands Determined in a Radioligand Binding Assay.
Membrane homogenates of adrenal medulla glands (200 μg protein) are incubated for 60 min at 22° C. with 15 nM [^3H]clonidine in the absence or presence of the test compound in a buffer containing 137 mM NaCl, 2.68 mM KCl, 0.5 mM MgCl2, 8.1 mM Na2HPO4, 1.47 mM KH2PO4, 0.5 mM EGTA, 0.5 mM EDTA, 0.5% ascorbic acid and 0.1% BSA (pH 7.4). It also contains 10 μM RX821002 to block the α2-adrenergic receptors.
Nonspecific binding is determined in the presence of 10 μM rilmenidine.
Following incubation, the samples are filtered rapidly under vacuum through glass fiber filters (GF/B, Packard) presoaked with 0.3% PEI and rinsed several times with ice-cold 50 mM Tris-HCl using a 96-sample cell harvester (Unifilter, Packard). The filters are dried then counted for radioactivity in a scintillation counter (Topcount, Packard) using a scintillation cocktail (Microscint 0, Packard).
The results are expressed as a percent inhibition of the control radioligand specific binding.
The standard reference compound is rilmenidine, which is tested in each experiment at several concentrations to obtain a competition curve from which its IC50 is calculated.
Bibliographic reference: MOLDERINGS, G. J., MOURA, D., FINK, K., BONISCH, H. and GOTHERT, M. (1993), Binding of [3H]clonidine to I1-imidazoline sites in bovine adrenal medullary membranes, Naun.-Sch. Arch. Pharm., 348: 70.

[8] = molecular target: Imidazoline-2 (I2) receptor; assay: central Imidazoline I2 receptor radioligand binding assay; parameters: species or system rat
Description: Evaluation of the Affinity of Compounds for the Central Imidazoline I2 Receptor in the Rat Cerebral Cortex Determined in a Radioligand Binding Assay.
Membrane homogenates of cerebral cortex (1 mg protein) are incubated for 30 min at 22° C. with 2 nM [^3H]idazoxan in the absence or presence of the test compound in a buffer containing 50 mM Tris-HCl (pH 7.4), 0.5 mM EDTA and 3 μM yohimbine.
Nonspecific binding is determined in the presence of 10 μM cirazoline.
Following incubation, the samples are filtered rapidly under vacuum through glass fiber filters (Filtermat B, Wallac) presoaked with 0.3% PEI and rinsed several times with an ice-cold buffer containing 50 mM Tris-HCl and 150 mM NaCl using a 48-sample cell harvester (Mach II, Tomtec). The filters are dried then counted for radioactivity in a scintillation counter (Betaplate 1204, Wallac) using a solid scintillator (Meltilex B/HS, Wallac).
The results are expressed as a percent inhibition of the control radioligand specific binding. The standard reference compound is idazoxan, which is tested in each experiment at several concentrations to obtain a competition curve from which its IC50 is calculated.
Bibliographic reference: BROWN, C. M., MAC KINNON, A. C., McGRATH, J. C., SPEDDING, M. and KILPATRICK A. T. (1990), α2-adrenoceptor subtypes and imidazoline-like binding sites in the rat brain, Brit. J. Pharmacol, 99: 803.

[9] = system: Sigma receptor (non-selective); assay: ligand binding screen, non-selective Sigma receptor; settings: Sigma (non-select), inhibition of ligand binding
[10] = molecular target: Sigma-1 receptor (Homo sapiens, UniProt Q99720); assay: equilibrium binding, Sigma-1 receptor; settings: Sigma 1, equilibrium binding
Sequence of Sigma-1 receptor (Q99720 whole entry, species assumed): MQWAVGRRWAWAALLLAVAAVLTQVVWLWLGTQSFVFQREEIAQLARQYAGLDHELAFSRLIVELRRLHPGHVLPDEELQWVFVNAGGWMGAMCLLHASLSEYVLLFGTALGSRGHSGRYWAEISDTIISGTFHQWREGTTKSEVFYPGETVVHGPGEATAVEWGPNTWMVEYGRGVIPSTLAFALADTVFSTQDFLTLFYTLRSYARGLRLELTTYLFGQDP

[11] = molecular target: Sigma-2 receptor (Homo sapiens, UniProt Q5BJF2); assay: equilibrium binding, Sigma-2 receptor; settings: Sigma 2, equilibrium binding
Sequence of Sigma-2 receptor (Q5BJF2 whole entry, species assumed): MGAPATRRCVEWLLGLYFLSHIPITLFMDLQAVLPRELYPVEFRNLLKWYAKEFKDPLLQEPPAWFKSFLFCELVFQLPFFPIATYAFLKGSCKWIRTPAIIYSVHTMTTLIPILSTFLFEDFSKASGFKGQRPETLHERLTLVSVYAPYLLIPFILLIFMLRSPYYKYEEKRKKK

[12] = molecular target: T4, human TAAR1 receptor (Homo sapiens, UniProt Q96RJ0); assay: TAAR1 cAMP Biosensor Assay; format: cell-based; settings: for Efficacy: TAAR1 activation, final concentration of 10 μM, free base; for EC50: TAAR1 cAMP accumulation, agonist dose response, mucate salts
T4 sequence (Q96RJ0 1-339): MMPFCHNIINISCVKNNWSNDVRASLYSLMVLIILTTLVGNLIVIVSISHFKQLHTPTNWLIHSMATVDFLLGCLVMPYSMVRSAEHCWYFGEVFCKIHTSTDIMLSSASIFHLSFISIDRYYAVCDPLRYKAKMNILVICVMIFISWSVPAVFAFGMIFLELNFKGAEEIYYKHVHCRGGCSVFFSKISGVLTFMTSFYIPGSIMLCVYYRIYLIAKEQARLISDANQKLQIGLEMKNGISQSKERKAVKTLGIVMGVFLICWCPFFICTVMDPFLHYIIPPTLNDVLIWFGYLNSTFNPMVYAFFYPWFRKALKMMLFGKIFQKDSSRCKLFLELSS
Description: To measure interactions with TAAR1, cell line stably expressing a recombinant human TAAR1 receptor were studied in the cAMP Biosensor Assay (DiscoveRx, Freemont, Calif.) since TAAR1 is coupled to G-proteins that signal through cAMP. The (S)- and (R)-Isometheptene isomers at a final concentration of 10 μM activate TAAR1 differentially, as shown on the table below, wherein (S)-Isometheptene activates more effectively than the R-Isometheptene. These activities may be linked to side-effects of racemic Isometheptene, due to the interaction of S-Isometheptene to the TAAR1 tyramine receptor.
Isometheptene Mucate USP, Isometheptene Mucate isomer 1, Isometheptene Mucate isomer 2 and p-Tyramine (control) in the TAAR1 cAMP Biosensor Assay of FIG. 23 as shown by the following diagrams (A), (B), (C), and (D). The data is shown as an agonist dose response curve, normalized to the maximal and minimal response observed in the presence of control ligand and vehicle respectively
The cAMP Hunter cell line expressing human TAAR1 was expanded from freezer stocks according to standard procedures. Cells were seeded in a total volume of 20 μL into white walled, 384-well microplates and incubated at 37° C. for the appropriate time prior to testing. cAMP modulation was determined using the DiscoveRx HitHunter cAMP XS+ assay. For agonist determination, cells were incubated with sample to induce response. Media was aspirated from cells and replaced with 15 μL 2:1 HBSS/10 mM Hepes:cAMP XS+ Ab reagent. Intermediate dilution of sample stocks was performed to generate 4× sample in assay buffer. 4.5 μL of 4× sample was added to cells and incubated at 37° C. or room temperature for 30 or 60 minutes. Final assay vehicle concentration was 1%. After appropriate compound incubation, assay signal was generated through incubation with 20 μL cAMP XS+ ED/CL lysis cocktail for one hour followed by incubation with 20 μL cAMP XS+ EA reagent for three hours at room temperature. Microplates were read following signal generation with a PerkinElmer Envision™ instrument for chemiluminescent signal detection. Compound activity was analyzed using CBIS data analysis suite (ChemInnovation, CA). For Gs agonist mode assays, percentage activity was calculated using the following formula: % Activity=100%×(mean RLU of test sample−mean RLU of vehicle control)/(mean RLU of MAX control−mean RLU of vehicle control).

CNC(C)Cc1ccc2c(c1)OCO2 (racemic) [MDMA, 3,4-methylenedioxy-N-methylamphetamine]
half-life ([1]; given as the racemate): around 8 hours

CNC(C)CCC=C(C)C (racemic) [Racemic, reference compound]
inhibition at 10 µM [2]: 37%
inhibition at 10 µM [3]: 46%
inhibition at 10 µM [4]: 76%
inhibition at 10 µM [5]: 41%
solubility in water [6]: soluble in water

CN[C@@H](C)CCC=C(C)C (single isomer, unassigned) [Isomer 1]
inhibition at 10 µM [3]: 13%
Ki [4]: 2700 nM
inhibition at 10 µM [4]: 29%
inhibition at 10 µM [5]: 0%
interaction with I1 less avidly than the R-Isometheptene enantiomer ([7]; (S) versus (R) enantiomer): about 60 fold
Ki [7]: 1100 nM
Ki [8]: 1100 nM
Inhibition @ 10 μM(%) [8]: 84%
Inhibition @ 10 μM(%) [9]: 87%
Ki [10]: 2100 nM
Ki [11]: 5200 nM
Efficacy [12]: 49.4%

CNC(C)CCC=C(C)C (single isomer, unassigned) [Isomer 2]
inhibition at 10 µM [3]: 31%
Ki [4]: 2300 nM
inhibition at 10 µM [4]: 57%
inhibition at 10 µM [5]: 0%
binding to I1 receptor more avidly than the (S)-Isometheptene enantiomer ([7]; (R) versus (S) enantiomer): about 60 fold
Ki [7]: 18 nM
Ki [8]: 1500 nM
Inhibition @ 10 μM(%) [8]: 86%
Inhibition @ 10 μM(%) [9]: 86%
Ki [10]: 1900 nM
Ki [11]: 5600 nM
Efficacy [12]: 25.6%

CN[C@@H](C)CCC=C(C)C (single isomer, unassigned) [Isometheptene Mucate Isomer 1]
EC50 [12]: 21100 nM

O=C(O)[C@@H](O)[C@H](O)[C@H](O)[C@@H](O)C(=O)O (single isomer, unassigned) [Isometheptene Mucate Isomer 2]
EC50 [12]: 29500 nM

CN[C@H](C)Cc1ccc2c(c1)OCO2 [(R)-MDMA, (R)-3,4-methylenedioxy-N-methylamphetamine]
area under the blood plasma concentration versus time curve (AUC), (R)-MDMA relative to (S)-MDMA ([1]; 40 mg oral dose in human volunteers): two to four times higher
plasma half-life [1]: 5.8 ± 2.2 h

CN[C@@H](C)Cc1ccc2c(c1)OCO2 [(S)-MDMA]
plasma half-life [1]: 3.6 ± 0.9 h
